These results are taken from article PMC10056348, “Photocaged Histone Deacetylase Inhibitors as Prodrugs in Targeted Cancer Therapy” (Pharmaceuticals, 2023).

Broadly, the IC50 is the concentration needed to halve the response being measured. The inhibition is the relative decrease from the control value, in per cent. The low end stands for a response near the control, the high end for a response far below the control.

The structures appear in SMILES notation. Like-named read-outs stand apart in the source and are kept apart here. Some results are limits rather than exact numbers.

In test [1] the target is T1, human recombinant HDAC6 (Homo sapiens, UniProt Q9UBN7).
T1 construct: purchased BPS Bioscience Inc. 50006
T1 sequence (Q9UBN7 1-1215): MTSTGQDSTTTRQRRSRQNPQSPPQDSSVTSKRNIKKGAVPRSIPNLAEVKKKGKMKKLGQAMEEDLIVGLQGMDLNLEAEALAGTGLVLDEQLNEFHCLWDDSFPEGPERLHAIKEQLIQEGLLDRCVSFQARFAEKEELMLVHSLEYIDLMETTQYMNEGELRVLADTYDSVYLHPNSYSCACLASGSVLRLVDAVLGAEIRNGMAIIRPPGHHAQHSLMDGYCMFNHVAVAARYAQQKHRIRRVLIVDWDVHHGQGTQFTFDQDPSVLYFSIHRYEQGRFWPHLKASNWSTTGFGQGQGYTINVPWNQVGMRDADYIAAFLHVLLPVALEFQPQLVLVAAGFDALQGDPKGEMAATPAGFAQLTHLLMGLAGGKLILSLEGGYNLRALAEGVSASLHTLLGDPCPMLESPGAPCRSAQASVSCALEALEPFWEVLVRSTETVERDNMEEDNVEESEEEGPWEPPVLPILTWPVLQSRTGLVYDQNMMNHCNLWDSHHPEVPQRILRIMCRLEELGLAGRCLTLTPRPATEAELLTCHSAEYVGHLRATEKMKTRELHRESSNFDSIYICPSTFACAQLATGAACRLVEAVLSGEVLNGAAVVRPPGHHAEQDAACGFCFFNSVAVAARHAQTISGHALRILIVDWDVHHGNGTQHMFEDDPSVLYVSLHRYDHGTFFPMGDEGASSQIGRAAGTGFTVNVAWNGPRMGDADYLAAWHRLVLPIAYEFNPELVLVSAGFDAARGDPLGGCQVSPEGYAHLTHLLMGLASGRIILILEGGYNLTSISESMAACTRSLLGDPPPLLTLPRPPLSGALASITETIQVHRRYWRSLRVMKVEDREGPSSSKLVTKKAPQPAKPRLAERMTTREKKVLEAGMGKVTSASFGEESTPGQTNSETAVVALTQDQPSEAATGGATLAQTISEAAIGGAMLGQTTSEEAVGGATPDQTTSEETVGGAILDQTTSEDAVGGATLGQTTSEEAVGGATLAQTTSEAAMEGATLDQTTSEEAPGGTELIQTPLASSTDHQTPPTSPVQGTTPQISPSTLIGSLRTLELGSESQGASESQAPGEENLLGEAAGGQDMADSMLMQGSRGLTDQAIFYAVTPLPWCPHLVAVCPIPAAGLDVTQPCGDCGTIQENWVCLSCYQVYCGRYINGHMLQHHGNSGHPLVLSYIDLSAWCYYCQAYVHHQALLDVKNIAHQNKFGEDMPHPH
In words: Fluorogenic HDAC enzyme inhibition assay (ZMAL substrate), HDAC6. Format: biochemical. The method, then: (§1) First, predilutions (100-fold final assay concentration) of test compounds or reference inhibitors were prepared. To this end, 3-fold serial dilutions of the respective DMSO stock solutions were prepared in DMSO using clear V-bottom 96-well microplates (Greiner Bio-One, Greiner AG, Kremsmünster, Austria). Predilutions designated for photolysis were irradiated for 10 min using the UV reactor described above. […] Next, 5.0 µL of these serial dilutions in assay buffer were transferred into 96-well microplates (OptiPlate-96 Black, PerkinElmer, Waltham, MA, USA). […] Fluorescence (excitation: 355 nm, emission: 460 nm) was measured using a FLUOstar OPTIMA microplate reader (BMG LABTECH GmbH, Ortenberg, Germany). IC50 values were determined by generating normalized dose–response curves using the built-in “log(inhibitor) vs. response (three parameters)” equation provided by GraphPad Prism (GraphPad Prism 9.0, San Diego, CA, USA). All compounds were tested in duplicates; reported mean IC50 values, including standard deviation, were calculated from at least two independent experiments.

Test [2] concerns the target T2, human recombinant HDAC1 (Homo sapiens, UniProt Q13547).
T2 construct: purchased BPS Bioscience Inc. 50051
In words: Fluorogenic HDAC enzyme inhibition assay (ZMAL substrate), HDAC1. Format: biochemical. As to the method:
as §1

Test [3] deals with cellular HDAC activity in MV-3 cells. The test is described as follows: HDAC whole-cell assay. Format: cell-based. The conditions noted are these: for IC50: read-out: IC50 whole-cell HDAC inhibition. As to the method: The amelanotic melanoma cell line MV-3 was obtained from EPO GmbH Berlin-Buch. The human ovarian carcinoma cell line A2780 was obtained from the European Collection of Cell Cultures (ECACC, Salisbury, UK). The cell lines were cultivated in RPMI 1640 medium supplemented with 10% fetal bovine serum and 50 U/mL penicillin and 50 µg/mL streptomycin and incubated at 37 °C under humidified air with 5% CO2 to 80–90% confluency before being used in further assays.
The HDAC whole-cell assay is based on the assay established by Ciossek et al. and Bonfils et al., with minor changes. Melanoma cells MV-3 were seeded in concentration of 15 × 10^3 cells/well (total volume of 81 µL) in 96-well cell-culture microplates (Catalog# 655086, Greiner Bio-One, Frickenhausen, Germany ) and cultured for 24 h. Aliquots of the DMSO stock solutions (10 mM) designated for photolysis were irradiated for 10 min with the UV reactor (see Section 4.3). The stock solutions processed with or without irradiation were used to perform a 4-fold serial dilution in PBS. Next, the cells were treated with 9 µL of the serial dilution for 18 h. For the analysis of the remaining HDAC activity, 10 µL of substrate solution, containing 3 mM Boc-Lys(ε-Ac)-AMC (Catalog# 233691-67-3, BLD pharmatech GmbH, Kaiserslautern, Germany) and 0.5% IGEPAL CA-630 (Catalog# J61055, Alfa Aesar, Thermo Fisher Scientific, Heysham, United Kingdom), was added and incubated for 3 h under cell culture conditions. The reaction was stopped with 100 µL of stop solution (50 mM Tris-HCl, 137 mM NaCl, 2.7 mM KCl, 1 mM MgCl2, 1% IGEPAL CA-630, 10 µM vorinostat, 2.0 mg/mL trypsin) and developed for 1.5 h under cell culture conditions. The fluorescence signal was measured using a Spark multimode microplate reader (Tecan Group AG, Männedorf, Swiss) at excitation wavelength of λ = 355 nm and emission wavelength of λ = 460 nm. Concentration-effect curves were generated using the four-parameter logistic equation (GraphPad Prism 9.0, San Diego, CA, USA), and mean IC50 values were determined by nonlinear regression based on at least three independent experiments in duplicates.

[4] abbreviates: after UV irradiation (365 nm, 10 min).

T2 sequence (Q13547 whole entry): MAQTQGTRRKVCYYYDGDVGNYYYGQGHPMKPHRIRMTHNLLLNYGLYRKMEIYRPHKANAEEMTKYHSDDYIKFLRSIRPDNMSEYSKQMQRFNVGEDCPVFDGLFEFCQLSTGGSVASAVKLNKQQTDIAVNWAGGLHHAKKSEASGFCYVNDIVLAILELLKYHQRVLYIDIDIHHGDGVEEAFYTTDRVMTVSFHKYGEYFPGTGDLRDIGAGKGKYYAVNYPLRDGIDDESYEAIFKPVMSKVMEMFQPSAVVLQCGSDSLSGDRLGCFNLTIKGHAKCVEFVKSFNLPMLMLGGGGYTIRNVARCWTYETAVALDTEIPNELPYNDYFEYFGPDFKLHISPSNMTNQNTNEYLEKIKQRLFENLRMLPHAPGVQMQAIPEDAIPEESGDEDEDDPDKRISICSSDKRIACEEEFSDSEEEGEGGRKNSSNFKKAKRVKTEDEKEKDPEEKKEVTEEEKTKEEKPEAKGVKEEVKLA

For `CN(C)c1ccc(C(=O)N(CC(=O)NCc2ccccc2)Cc2ccc(C(=O)NO)cc2)cc1` [I, N-[2-(benzylamino)-2-oxoethyl]-4-(dimethylamino)-N-[4-(hydroxycarbamoyl)-benzyl]-benzamide], the IC50 was found to be 0.0131 ± 0.0009 µM in test [1] (without UV irradiation); 0.0127 ± 0.0007 µM in test [2] (without UV irradiation); 0.0906 ± 0.00574 µM in test [3] (18 h, without UV irradiation); 0.091 µM in test [3] (MV-3, light or radiation study, 18 h, without UV irradiation).

For the molecule `COc1cc(CONC(=O)c2ccc(CN(CC(=O)NCc3ccccc3)C(=O)c3ccc(N(C)C)cc3)cc2)c([N+](=O)[O-])cc1OC` [pc-I, N-[2-(Benzylamino)-2-oxoethyl]-N-(4-{[(4,5-dimethoxy-2-nitrobenzyl)oxy]carbamoyl}benzyl)-4-(dimethylamino)benzamide], the IC50 in test [1] (setting [4]) is 0.0216 ± 0.0028 µM; in test [1] (without UV irradiation), 0.794 ± 0.0747 µM; in test [2] (setting [4]) it was 0.0068 ± 0.0012 µM; in test [2] (without UV irradiation) it was 0.824 ± 0.0322 µM; in test [3] (light or radiation study, 18 h, after UV irradiation (365 nm, 10 min)), 0.073 µM. The “increase of HDAC6 inhibition upon irradiation with UV light” value in test [1] (irradiated vs non-irradiated) is recorded as 37 fold. In addition, in test [2] (irradiated vs non-irradiated), the “increase of HDAC1 inhibition upon irradiation with UV light” value turned out to be 121 fold. Also, the “IC50 whole-cell HDAC inhibition” value in test [3] (18 h, without UV irradiation) is “n.e. (no effect: <25% inhibition at 25 µM)”. Further, the inhibition at 25 µM in test [3] (light or radiation study, at 25 µM, without UV irradiation) was less than 25%.
